From PubChem BioAssay AID1963838 (Molecular Pharmacology Branch, DTP, NCI, 2024)

System: 855422-203-R-J1-PDC complex spheroid viability
Assay: Anticancer human tumor 855422-203-R-J1-PDC patient-derived bladder carcinoma cell line growth inhibition [POLQ]
Conditions: for IC50: curve of first compound; for viability, T/C: stronger effect = lower value
Method: Multicellular complex tumor spheroid response to Polymerase (POL) inhibitors (novobiocin, ART-558, RP6685) in combination with a variety of drugs and investigational agents in selected tumor cell lines
The POL inhibitors (novobiocin, ART-558, and RP6685) were evaluated both individually and in combination with standard of care and investigational anticancer small molecules within a complex spheroid model of solid tumors. . Complex spheroids include a stromal component modeled by human endothelial cells (HUVEC) and fibroblasts modeled by human mesenchymal stem cells (MSCs). The concentration ranges selected for each drug and investigational agent were based upon clinically achievable concentrations if the clinical Cmax of the agent was known.
Compounds. The drugs and investigational agents: novobiocin (NSC847541), ART-558 (NSC835418), RP-6685 (NSC848927), peposertib (NSC802822), ceralasertib (NSC780249), elimusertib (NSC800525), camonsertib (NSC841442), AZD-1390 (NSC803789), olaparib (NSC753686), talazoparib (NSC767125), rucaparib (NSC756644), sotorasib (NSC818433), MRTX-1133 (NSC836407), SN-38 (NSC673596), topotecan (NSC609699), epotoside (NSC141540), doxorubicin (NSC123127), gemcitabine (NSC613327), 5-fluorouracil (NSC19893), paclitaxel (NSC125973), vemurafenib (NSC761431), MSA-2 (NSC828583), SN-011 (NSC837082), adavosertib (NSC754352), prexasertib (NSC758257), carboplatin (NSC241240) and oxaliplatin (NSC266046), were obtained from the National Cancer Institute (NCI) Developmental Therapeutics Program Chemical Repository (21). The FDA-approved anticancer drug set is available from the Developmental Therapeutics Program at https://dtp.cancer.gov/organization/dscb/obtaining/. […] The stock solutions were prepared in dimethyl sulfoxide (DMSO, Sigma-Aldrich, St. Louis, MO, cat. D2650), except for the platinum compounds which were prepared in saline (Quality Biological, Gaithersburg, MD, cat. 114-055-101), at 800-fold the tested concentration and stored at -70 degrees C prior to their use. All drugs and investigational agents were tested over a range starting from a high concentration at or near the clinical Cmax and decreasing in half-log increments. If the clinical Cmax for an agent had not been determined, the highest concentration tested was 10 microM, except for SN-38, which was tested at a high concentration of 1 microM.
Cell Culture. All cells were maintained in an incubator at 37 degrees C and 5% CO2 with 95% humidity. The PDC lines were cultured according to standard operating procedures established by the NCI PDMR (https://pdmr.cancer.gov). Table 3 of the manuscript, lists the cell lines along with the number of the three cell types plated to form the mct-spheroids and media for tumor cell growth. After thawing, all PDC lines, except 997537-175-T-J1-PDC and 415267-285-R-J2-PDC, were cultured in Matrigel-coated flasks prepared with a working solution of 1X Ham's F-12 nutrient mix, without supplementation (Thermo Fisher Scientific, cat. 11765054), 100 U/mL penicillin-streptomycin (Thermo Fisher Scientific, cat. 15140122), and 2.5% Matrigel (Corning Inc., Corning, NY, cat. 354248) for the first three passages. The two PDC lines 997537-175-T-J1-PDC and 415267-285-R-J2-PDC were cultured on uncoated flasks. The 857933-349-R-J2-PDC line was cultured in 6C/Colon 1B media containing advanced DMEM/F-12 (Thermo Fisher Scientific, cat. 12634028), 10 mM HEPES (Thermo Fisher Scientific, cat. 15630080), 1X GlutaMAX supplement (Thermo Fisher Scientific, cat. 35050061), 0.1 mg/mL primocin (InvivoGen, San Diego, CA, cat. ant-pm-2), 10% defined fetal bovine serum, heat inactivated (HyClone Laboratories Inc., Logan, UT, cat. SH30070.03HI), 50% L-WRN conditioned media (ATCC, cat. CRL-3276), 1.25 mM N-Acetyl-L-cysteine (Sigma-Aldrich, cat. A9165), 10 mM nicotinamide (Sigma-Aldrich, cat. N0636), 1X B-27 supplement (Thermo Fisher Scientific, cat. 17504044), 1X N-2 supplement (Thermo Fisher Scientific, cat. […]
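Note: spheroids exposed to compounds for seven days before readout.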

CC(=O)O[C@H]1C(=O)[C@@]2(C)[C@H]([C@H](OC(=O)c3ccccc3)[C@]3(O)C[C@H](OC(=O)[C@H](O)[C@@H](NC(=O)c4ccccc4)c4ccccc4)C(C)=C1C3(C)C)[C@]1(OC(C)=O)CO[C@@H]1C[C@@H]2O + COC1C(OC(N)=O)C(O)C(Oc2ccc3c(O)c(NC(=O)c4ccc(O)c(CC=C(C)C)c4)c(=O)oc3c2C)OC1(C)C
IC50 (second compound 0.0316 µM): < 9.49 nM
IC50 (second compound 0.1 µM): < 9.49 nM
IC50 (second compound 0.316 µM): < 9.49 nM
IC50 (second compound 1 µM): < 9.49 nM
IC50 (second compound 3.16 µM): < 9.49 nM
IC50 (second compound 10 µM): < 9.49 nM
viability, T/C (second compound 0.0316 µM, first compound 0.00949 µM): 5.68%
viability, T/C (second compound 0.0316 µM, first compound 0.03 µM): 5.82%
viability, T/C (second compound 0.0316 µM, first compound 0.0949 µM): 5%
viability, T/C (second compound 0.0316 µM, first compound 0.3 µM): 6.46%
viability, T/C (second compound 0.0316 µM, first compound 0.949 µM): 5.84%
viability, T/C (second compound 0.0316 µM, first compound 3 µM): 5.17%
viability, T/C (second compound 0.1 µM, first compound 0.00949 µM): 5.77%
viability, T/C (second compound 0.1 µM, first compound 0.03 µM): 6.65%
viability, T/C (second compound 0.1 µM, first compound 0.0949 µM): 5.15%
viability, T/C (second compound 0.1 µM, first compound 0.3 µM): 4.93%
viability, T/C (second compound 0.1 µM, first compound 0.949 µM): 5.98%
viability, T/C (second compound 0.1 µM, first compound 3 µM): 4.74%
viability, T/C (second compound 0.316 µM, first compound 0.00949 µM): 8.12%
viability, T/C (second compound 0.316 µM, first compound 0.03 µM): 6.43%
viability, T/C (second compound 0.316 µM, first compound 0.0949 µM): 5.94%
viability, T/C (second compound 0.316 µM, first compound 0.3 µM): 4.73%
viability, T/C (second compound 0.316 µM, first compound 0.949 µM): 4.96%
viability, T/C (second compound 0.316 µM, first compound 3 µM): 5.68%
viability, T/C (second compound 1 µM, first compound 0.00949 µM): 7.33%
viability, T/C (second compound 1 µM, first compound 0.03 µM): 6.18%
viability, T/C (second compound 1 µM, first compound 0.0949 µM): 5.96%
viability, T/C (second compound 1 µM, first compound 0.3 µM): 5.56%
viability, T/C (second compound 1 µM, first compound 0.949 µM): 6.11%
viability, T/C (second compound 1 µM, first compound 3 µM): 6.43%
viability, T/C (second compound 3.16 µM, first compound 0.00949 µM): 6.84%
viability, T/C (second compound 3.16 µM, first compound 0.03 µM): 6.73%
viability, T/C (second compound 3.16 µM, first compound 0.0949 µM): 5.34%
viability, T/C (second compound 3.16 µM, first compound 0.3 µM): 5.02%
viability, T/C (second compound 3.16 µM, first compound 0.949 µM): 5.62%
viability, T/C (second compound 3.16 µM, first compound 3 µM): 6.32%
viability, T/C (second compound 10 µM, first compound 0.00949 µM): 7.25%
viability, T/C (second compound 10 µM, first compound 0.03 µM): 6.33%
viability, T/C (second compound 10 µM, first compound 0.0949 µM): 5.51%
viability, T/C (second compound 10 µM, first compound 0.3 µM): 5.78%
viability, T/C (second compound 10 µM, first compound 0.949 µM): 5.59%
viability, T/C (second compound 10 µM, first compound 3 µM): 6.4%
